Measurements: patent US12473305B2, “Pyrazole boronic acid compound, pharmaceutical composition containing same, and uses thereof” (BEIJING SONGRUN PHARMACEUTICAL TECHNOLOGY CO., LTD., priority 2020, dated 2025)

How the values were obtained:
A549 = experiment: MTT antitumor spectrum, A549; type: cell-based; settings: Homo sapiens, 72 h
Experimental: (§1) The activity of compound 30 was evaluated by MTT method against seven tumor cell models, A549, A375, HCT116, MDA-MB-231, HepG2, PC3 and MCF-7. All cells used in the study were prepared at a concentration of 3.5×10^3 cells/mL, and each […] cell suspension was inoculated on a 96-well microtiter plate for 24 hours (37° C., 5% CO2). Then different concentrations of compound 30 were added, incubated for 72 hours; and for the control group, equivalent concentrations of DMSO (final concentration 0.5%) were added. The number of viable cells was measured by MTT (3-(4,5-dimethylthiazol-2-yl)-diphenyl tetrazolium bromide) method, and the OD value at 492/620 nm was recorded. The IC50 value was calculated by Prism-Graphpad software based on the results of triplicate experiments.

MDA-MB-231 = experiment: MTT antitumor spectrum, MDA-MB-231; type: cell-based; settings: Homo sapiens, 72 h
Experimental: as §1

HepG2 = experiment: MTT antitumor spectrum, HepG2; type: cell-based; settings: Homo sapiens, 72 h
Experimental: as §1

[1] = tested on: non-small cell lung cancer cell line A549; experiment: CellTiter-Glo tumor cell proliferation, A549; type: cell-based, human; settings: Homo sapiens, A549; CellTiter-Glo, 72 h
Method in brief: (§2)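 Cells seeded at 2×10^4/mL, grown 24 h at 37° C, 5% CO2, then treated in triplicate with medium-diluted compound for 72 h. CellTiter-Glo luminescence read after 20 min at 37° C; inhibition versus untreated control RLU, IC50 calculated.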

[2] = tested on: Human melanoma cell line A375; experiment: CellTiter-Glo tumor cell proliferation, A375; type: cell-based; settings: Homo sapiens, A-375; CellTiter-Glo, 72 h
Method in brief: as §2

HCT116 = experiment: MTT antitumor spectrum, HCT116; type: cell-based; settings: Homo sapiens, HCT-116, 72 h
Experimental: as §1

[3] = Pharmacokinetic test in rats (IV and PO); type: in vivo, male SD rats
Experimental: This experiment includes the PO group and IV group, with three animals in each group. For the PO group, about 0.25 mL of whole blood was collected from orbital venous plexus before administration, and 15 min, 30 min, 1 h, 2 h, 4 h, 7 h and 24 h after administration, and for the IV group, about 0.25 mL of whole blood was collected from orbital venous plexus before administration, and 5 min, 15 min, 30 min, 1 h, 2 h, 4 h, 7 h and 24 h after administration, which were placed in heparin anticoagulant tube. After the blood collection, the blood collection tubes containing anticoagulant agent was inverted several times to fully mix, and placed on wet ice before centrifugation. Within 60 minutes after blood collection, it was centrifuged at 8000 rpm under 2 to 8° C. for 10 minutes to separate red blood cells and obtain plasma samples. The plasma sample was transferred to a cryogenic tube and stored at −75±15° C. until analysis. 50 μL of the plasma sample was taken and added with 5 μL of acetonitrile:water (1:1, v/v), and added with 200 μL of 0.1% formic acid-acetonitrile, centrifuged (12000 rpm, 15 min); the supernatant was diluted in 1:1 with ultrapure water. The plasma drug concentration was analyzed by using LC-MS/MS method. Microsoft EXCEL was used to statistically describe the experimental data with mean, deviation % and standard deviation (SD). The pharmacokinetic parameters were calculated with WinNonlin 8.1 software. The following pharmacokinetic parameters were calculated: CL (clearance), Vd (apparent volume of distribution), T1/2 (elimination half-life time), Cmax (peak concentration), Tmax (peak time), AUC (area under the blood concentration-time curve), and F % (bioavailability).

[4] = tested on: liver cancer cell line HepG2; experiment: CellTiter-Glo tumor cell proliferation, HepG2; type: cell-based, human; settings: Homo sapiens, HepG2, 72 h
Experimental: The effect of compounds on tumor cell proliferation was detected by CellTiter-Glo method. Human melanoma cell line A375, non-small cell lung cancer cell line A549, human lung adenocarcinoma cell line H1299, colorectal cancer cell line HCT116, liver cancer cell line HepG2 and gastric cancer cell line MGC80-3 were cultured in vitro. The cells were collected after growing to the logarithmic growth phase, centrifuged at 1000 rpm for 5 min, and suspended in an appropriate amount of medium after discarding the supernatant, and the cell concentration was adjusted to 2×10^4/mL. The cell suspension was inoculated onto the 384-well cell culture plate, with 50 μL per well. After being cultured in a cell incubator (37° C., 5% CO2) for 24 h, 5 μL of drug diluted by the cell culture medium was added into each well for the treatment group. Each drug was provided in triplicate. After 72 h incubation in the incubator, 20 μL of CellTiter-Glo was added into each well, and the relative luminescence unit (RLU) was measured with Multimode Microplate Reader Varioskan Flash (Thermo Scientific, USA) after placed at 37° C. for 20 min, and compared with the RLU of the control group. SigmaPlot 10.0 software was used to calculate the inhibition rate and IC50 value.

[5] = Maximum tolerated dose in mice; type: in vivo; settings: for body weight (M ± S.E.): in g (unit assumed)
Experimental: Healthy non-tumor bearing female NOD/SCID mice (purchased from Sipeifu Biotechnology Co., Ltd.) were selected for the Maximum Tolerated Dose (MTD) test. Compound 39 was administered to NOD/SCID mice directly through a single tail vein injection, and the vehicle (0.3 mL DMSO, 0.27 mL Tween-80, 2.43 mL normal saline) was used as the control group. According to the dose of compound 39, the administration group was divided into three groups: low-dose group (10 mg/kg), medium-dose group (20 mg/kg), and high-dose group (30 mg/kg), with seven mice in each group.

[6] = male, SD, rat, IV 1 mg/kg, single, plasma
[7] = male, SD, rat, PO 10 mg/kg, single, plasma

Work on `CC(C)C[C@H](NC(=O)Cn1nc(-c2cccc(OCCN3CCOCC3)c2)cc1-c1ccccc1)B(O)O.Cl` [Compound 30, (R)-(3-methyl-1-(2-(3-(3-(2-morpholinoethoxy)phenyl)-5-phenyl-1H-pyrazol-1-yl)-acetamido)butyl)boronic acid hydrochloride] yielded an IC50 (A549) of 3.05 µM, an IC50 (MDA-MB-231) of 0.94 µM and an IC50 (HepG2) of 1.08 µM. For the same molecule, the IC50 [1] was 3.05 µM, the IC50 [2] was 0.822 µM and the IC50 (HCT116) was 0.63 µM.
In the case of `CC(C)C[C@H](NC(=O)Cn1nc(-c2cccc(OCCN3CCN(c4ccccc4)CC3)c2)cc1-c1ccccc1)B(O)O.Cl` [Compound 39, (R)-(3-methyl-1-(2-(5-phenyl-3-(3-(2-(4-phenylpiperazin-1-yl)ethoxy)phenyl)-1H-pyrazol-1-yl)acetamido)butyl)boronic acid hydrochloride], the “clearance (in words)” value ([3]; IV 1 mg/kg) is reported as “medium clearance”, the CL_obs ([3]; IV 1 mg/kg, single, plasma, hydrochloride, 1 mg/kg) is reported as 1.26 ± 0.204 L/h/kg and the “distribution in vivo (in words)” value ([3]; IV 1 mg/kg, Vd higher than total liquid volume of SD rats) is reported as “widely distributed in vivo”. For the same molecule, the “absorption (in words)” value ([3]; PO 10 mg/kg) was “rapid absorption”, the bioavailability ([3]; male, SD, rat, plasma, PO 10 mg/kg vs IV 1 mg/kg, read-out: F (bioavailability)) was 2.42 ± 1.91% and the AUC(0-inf) [3, 6] was 0.807 ± 0.123 µg·h/mL. The AUC(0-t) [3, 6] was 0.767 ± 0.117 µg·h/mL, the C0 [3, 6] was 0.846 ± 0.183 µg/mL and the Cmax [3, 6] was 0.671 ± 0.124 µg/mL. It also gave a Tmax [3, 6] of 4.98 min, a Vd [3, 6] of 13.9 ± 2.8 L/kg and a half-life [3, 6] of 458 ± 18 min. It also gave an AUC(0-inf) [3, 7] of 0.191 ± 0.147 µg·h/mL, an AUC(0-t) [3, 7] of 0.186 ± 0.147 µg·h/mL and a Cmax [3, 7] of 0.0748 ± 0.082 µg/mL. For the same molecule, the Tmax [3, 7] was 19.8 ± 8.4 min, the half-life [3, 7] was 97.8 ± 21.6 min and the IC50 [4] was 0.054 µM. For the same molecule, the “body weight (M ± S.E.)” value ([5]; High-dose 30 mg/kg single tail vein injection, Day 0 (day before administration)) was 24.2 ± 0.5, the “body weight (M ± S.E.)” value ([5]; High-dose 30 mg/kg single tail vein injection, Day 1) was 24.0 ± 0.5 and the “body weight (M ± S.E.)” value ([5]; High-dose 30 mg/kg single tail vein injection, Day 2) was 22.4 ± 0.6. For the same molecule, the “body weight (M ± S.E.)” value ([5]; High-dose 30 mg/kg single tail vein injection, Day 3) was 22.5 ± 0.6, the “body weight (M ± S.E.)” value ([5]; High-dose 30 mg/kg single tail vein injection, Day 4) was 22.7 ± 0.7 and the “body weight (M ± S.E.)” value ([5]; High-dose 30 mg/kg single tail vein injection, Day 5) was 22.9 ± 0.6. The “body weight (M ± S.E.)” value ([5]; High-dose 30 mg/kg single tail vein injection, Day 6) was 22.5 ± 0.6, the “body weight (M ± S.E.)” value ([5]; High-dose 30 mg/kg single tail vein injection, Day 7) was 23.1 ± 0.4 and the “body weight (M ± S.E.)” value ([5]; Low-dose 10 mg/kg single tail vein injection, Day 0 (day before administration)) was 24.2 ± 0.8. For the same molecule, the “body weight (M ± S.E.)” value ([5]; Low-dose 10 mg/kg single tail vein injection, Day 1) was 24.5 ± 0.8, the “body weight (M ± S.E.)” value ([5]; Low-dose 10 mg/kg single tail vein injection, Day 2) was 23.3 ± 1.1 and the “body weight (M ± S.E.)” value ([5]; Low-dose 10 mg/kg single tail vein injection, Day 3) was 23.4 ± 1.0. For the same molecule, the “body weight (M ± S.E.)” value ([5]; Low-dose 10 mg/kg single tail vein injection, Day 4) was 23.7 ± 1.1, the “body weight (M ± S.E.)” value ([5]; Low-dose 10 mg/kg single tail vein injection, Day 5) was 24.1 ± 1.0 and the “body weight (M ± S.E.)” value ([5]; Low-dose 10 mg/kg single tail vein injection, Day 6) was 24.4 ± 0.8. The “body weight (M ± S.E.)” value ([5]; Low-dose 10 mg/kg single tail vein injection, Day 7) was 24.7 ± 0.7, the “body weight (M ± S.E.)” value ([5]; Medium-dose 20 mg/kg single tail vein injection, Day 0 (day before administration)) was 24.7 ± 0.2 and the “body weight (M ± S.E.)” value ([5]; Medium-dose 20 mg/kg single tail vein injection, Day 1) was 24.1 ± 0.5. For the same molecule, the “body weight (M ± S.E.)” value ([5]; Medium-dose 20 mg/kg single tail vein injection, Day 2) was 22.8 ± 0.4, the “body weight (M ± S.E.)” value ([5]; Medium-dose 20 mg/kg single tail vein injection, Day 3) was 22.7 ± 0.4 and the “body weight (M ± S.E.)” value ([5]; Medium-dose 20 mg/kg single tail vein injection, Day 4) was 22.8 ± 0.5. The “body weight (M ± S.E.)” value ([5]; Medium-dose 20 mg/kg single tail vein injection, Day 5) was 23.3 ± 0.6, the “body weight (M ± S.E.)” value ([5]; Medium-dose 20 mg/kg single tail vein injection, Day 6) was 23.7 ± 0.7 and the “body weight (M ± S.E.)” value ([5]; Medium-dose 20 mg/kg single tail vein injection, Day 7) was 24.0 ± 0.7. The “average body weight change of mice” value ([5]; doses of 30 mg/kg or less, single tail vein injection) was “not more than 5%” and the MTD at 7 days ([5]; female, NOD/SCID, mouse, in vivo, single tail vein injection, 7 days observation, read-out: dose safe to be administered (maximum tolerated dose test)) was at most 30 mg/kg.
